For orientation: chromatographic logP means lipophilicity estimated from chromatographic retention. A low value points to a more hydrophilic compound.

Our source for the pest or weed control and chromatographic logP values is patent US20110245284A1, “Alkoxy- and Alkylthio-Substituted Anilinopyrimidines” (Bayer CropScience AG, priority 2008, published 2011).

The test system of data set [1] is Leptosphaeria nodorum. Put plainly: Leptosphaeria nodorum test (wheat) / protective. The class given is in vivo. The settings on record: Parastagonospora nodorum, active compound concentration 500 ppm, evaluation 7-9 days after inoculation, read-out: efficacy. The protocol:
Thereafter, the plants are placed in a greenhouse at 90% relative atmospheric humidity and a temperature of 22° C.

The subject of data set [2] is Pyrenophora teres. The experiment in a line: Pyrenophora teres test (barley) / protective. The class given is in vivo. The conditions noted are these: 192 h, active compound concentration 500 ppm, evaluation 8 days after inoculation, read-out: efficacy. The procedure:
After the spray coating has dried on, the plants are sprayed with a spore suspension of Pyrenophora teres. The plants remain in an incubation cabinet for 48 hours at 20° C. and 100% relative atmospheric humidity.

Data set [3] relates to Pyricularia oryzae. Put plainly: whole plant or invertebrate. The class given is in vivo. The settings on record: 120 h, read-out: efficacy.
Data set [4] deals with Rhizoctonia solani. Put plainly: Rhizoctonia test (rice) / protective. The class given is in vivo. The settings on record: 96 h, active compound concentration 250 ppm, evaluation 4 days after inoculation, read-out: efficacy.
Data set [5] is described as follows: logP by LC-MS on reversed-phase columns (C 18), method [b], acidic range pH 2.7. The settings on record: pH 2.7, log p. The class given is physicochemical. The procedure:
(§1) The logP values were determined in accordance with EEC Directive 79/831 Annex V.A8 by HPLC (High Performance Liquid Chromatography) on reversed-phase columns (C 18), using the methods below:
[b] The LC-MS determination in the acidic range is carried out at pH 2.7 using the mobile phases 0.1% aqueous formic acid and acetonitrile (contains 0.1% formic acid), linear gradient from 10% acetonitrile to 95% acetonitrile.

Data set [6] relates to Cochliobolus miyabeanus. The experiment in a line: Cochliobolus test (rice) / protective. The settings on record: Bipolaris oryzae, in Oryza sativa, 96 h, read-out: efficacy.
Method: Cochliobolus Test (Rice)/Protective • Solvent: 28.5 parts by weight of acetone • Emulsifier: 1.5 parts by weight of alkylaryl polyglycol ether
1 day after the treatment, the plants are inoculated with an aqueous spore suspension of Cochliobolus miyabeanus. The plants are then placed in a greenhouse at 100% relative atmospheric humidity and 25° C.
Evaluation is carried out 4 days after the inoculation.
Data set [7] concerns Sphaerotheca fuliginea. The experiment in a line: Sphaerotheca test (cucumber) / protective. The class given is in vivo. The settings on record: Podosphaera fuliginea, 168 h, active compound concentration 500 ppm, evaluation 7 days after inoculation, read-out: efficacy. The protocol: The plants are subsequently placed in a greenhouse at 70% relative atmospheric humidity and a temperature of 23° C.

Data set [8] in a line: logP by LC-MS on reversed-phase columns (C 18), method [c], neutral range pH 7.8. The class given is physicochemical. The settings on record: pH 7.8. The protocol:
as §1
[c] The LC-MS determination in the neutral range is carried out at pH 7.8 using the mobile phases 0.001 molar aqueous ammonium bicarbonate solution and acetonitrile, linear gradient from 10% acetonitrile to 95% acetonitrile.

A value given as a limit tells only on which side of the number the result lay.

Regarding `CCCSc1cccc(Nc2ncc(Cl)c(NC3CCC3)n2)c1` [Example 5], the pest or weed control at 500 ppm in data set [1] and in data set [2] was not below 70% each time. Further, the pest or weed control at 250 ppm in data set [3], in data set [4] and in data set [6] was not below 80% in each case. The chromatographic logP in data set [5] came out at 3.66.
In the case of `COC(C)c1cccc(Nc2ncc(C(F)(F)F)c(NC3CCC3)n2)c1` (centres unmarked) [Example 19], the pest or weed control at 500 ppm in data set [1] and in data set [2] was not below 70% each time. For the same molecule, the pest or weed control at 250 ppm in data set [3], in data set [4] and in data set [6] was not below 80% throughout. In data set [5], this molecule displayed a chromatographic logP of 3.69.
As to `CCOCCOc1ccc(Nc2ncc(C(F)(F)F)c(NC3CC3)n2)cc1` [Example 91], the pest or weed control at 500 ppm in data set [7], in data set [1] and in data set [2] was not below 70% in each case. The pest or weed control at 250 ppm in data set [3], in data set [4] and in data set [6] was not below 80% throughout. Besides, the chromatographic logP in data set [5] is 3.26; in data set [8] it was 3.64.
As to `CCSc1cccc(Nc2ncc(C(F)(F)F)c(NC3CC3)n2)c1` [Example 101], the pest or weed control at 500 ppm in data set [7], in data set [1] and in data set [2] was not below 70% in each case. The pest or weed control at 250 ppm in data set [3], in data set [4] and in data set [6] was not below 80% each time. Moreover, the chromatographic logP was determined as 3.95 in data set [5] and 4.21 in data set [8].
Regarding `CCC[S+]([O-])c1cccc(Nc2ncc(Br)c(NC3CC3)n2)c1` (centres unmarked) [Example 102], the pest or weed control at 500 ppm in data set [1] and in data set [2] was not below 70% throughout. Further, the pest or weed control at 250 ppm in data set [3], in data set [4] and in data set [6] was not below 80% each time. Moreover, the chromatographic logP in data set [5] worked out at 1.04; in data set [8], 2.5.
As to `CCCSc1cccc(Nc2ncc(C(F)(F)F)c(NC3CC3)n2)c1` [Example 109], the pest or weed control at 500 ppm in data set [7] and in data set [1] was not below 70% each time. Besides, the pest or weed control at 250 ppm in data set [3], in data set [4] and in data set [6] was not below 80% in each case. For the same molecule, the chromatographic logP in data set [5] came to 4.44.
In the case of `CC[S+]([O-])c1cccc(Nc2ncc(C(F)(F)F)c(NC3CC3)n2)c1` (centres unmarked) [Example 117], the pest or weed control at 500 ppm in data set [7], in data set [1] and in data set [2] was not below 70% throughout. For the same molecule, the pest or weed control at 250 ppm in data set [3], in data set [4] and in data set [6] was not below 80% in each case. Besides, the results for the chromatographic logP in data set [5] and in data set [8] were 2.2 and 2.46, respectively.
With `CCCC[S+]([O-])c1cccc(Nc2ncc(Br)c(NC3CC3)n2)c1` (centres unmarked) [Example 126], the pest or weed control at 500 ppm in data set [1] and in data set [2] was not below 70% throughout. The pest or weed control at 250 ppm in data set [3], in data set [4] and in data set [6] was not below 80% each time. Moreover, the chromatographic logP in data set [5] was 2.28; in data set [8] it was 2.86.
On to `COCc1cccc(Nc2ncc(C(F)(F)F)c(NCC3CC3)n2)c1` [Example 127], for which the pest or weed control at 500 ppm in data set [7], in data set [1] and in data set [2] was not below 70% each time. Also, the pest or weed control at 250 ppm in data set [3], in data set [4] and in data set [6] was not below 80% throughout.
Turning to `COCCCSc1cccc(Nc2ncc(Cl)c(NC3CC3)n2)c1` [Example 201], in data set [1], the pest or weed control at 500 ppm was not below 70%. Also, the pest or weed control at 250 ppm in data set [3], in data set [4] and in data set [6] was not below 80% in each case. Also, the chromatographic logP in data set [5] came to 2.59; in data set [8] it was 3.77.
